Source: the NIST ThermoML archive (doi:10.1021/je400250u)

Tests used:
[1] = refractive index (Na D-line) (dimensionless); xn = mol fraction of the nth substance listed; conditions: 100 kPa, Liquid, Standard Abbe refractometry
[2] = xn = mol fraction of the nth substance listed; conditions: 100 kPa, Liquid; for viscosity: Capillary tube (Ostwald / Ubbelohde) method; for mass density: Vibrating tube method

C1CC[C@H]2CCCC[C@@H]2C1 [trans-decahydronaphthalene] + CCCCCCCCC
Conditions | mass density, [2] [kg/m3] | refractive index, [1] | viscosity, [2] [mPa·s]
293.15 K, x1 = 0.1036 | 732.72 | – | 0.772
293.15 K, x1 = 0.2018 | 746.84 | – | 0.836
293.15 K, x1 = 0.3016 | 761.45 | – | 0.912
293.15 K, x1 = 0.4042 | 776.68 | – | 1.004
293.15 K, x1 = 0.4954 | 790.42 | – | 1.109
293.15 K, x1 = 0.6009 | 806.55 | – | 1.253
293.15 K, x1 = 0.6984 | 821.69 | – | 1.409
293.15 K, x1 = 0.8001 | 837.66 | – | 1.635
293.15 K, x1 = 0.8933 | 852.53 | – | 1.864
293.15 K, x1 = 1 | 869.78 | – | 2.112
298.15 K, x1 = 0.1036 | 728.87 | 1.4084 | 0.725
298.15 K, x1 = 0.2018 | 743 | 1.4146 | 0.781
298.15 K, x1 = 0.3016 | 757.63 | 1.4205 | 0.849
298.15 K, x1 = 0.4042 | 772.88 | 1.4273 | 0.934
298.15 K, x1 = 0.4954 | 786.63 | 1.4326 | 1.028
298.15 K, x1 = 0.6009 | 802.78 | 1.4397 | 1.154
298.15 K, x1 = 0.6984 | 817.94 | 1.4459 | 1.305
298.15 K, x1 = 0.8001 | 833.93 | 1.4526 | 1.505
298.15 K, x1 = 0.8933 | 848.8 | 1.4591 | 1.701
298.15 K, x1 = 1 | 866.07 | 1.4662 | 1.925
303.15 K, x1 = 0.1036 | 724.99 | – | 0.681
303.15 K, x1 = 0.2018 | 739.14 | – | 0.732
303.15 K, x1 = 0.3016 | 753.79 | – | 0.795
303.15 K, x1 = 0.4042 | 769.06 | – | 0.871
303.15 K, x1 = 0.4954 | 782.83 | – | 0.957
303.15 K, x1 = 0.6009 | 798.99 | – | 1.075
303.15 K, x1 = 0.6984 | 814.17 | – | 1.213
303.15 K, x1 = 0.8001 | 830.18 | – | 1.393
303.15 K, x1 = 0.8933 | 845.07 | – | 1.568
303.15 K, x1 = 1 | 862.34 | – | 1.769
308.15 K, x1 = 0.1036 | 721.09 | 1.4038 | 0.642
308.15 K, x1 = 0.2018 | 735.26 | 1.4105 | 0.688
308.15 K, x1 = 0.3016 | 749.94 | 1.4163 | 0.746
308.15 K, x1 = 0.4042 | 765.23 | 1.423 | 0.816
308.15 K, x1 = 0.4954 | 779.01 | 1.4286 | 0.893
308.15 K, x1 = 0.6009 | 795.19 | 1.435 | 0.998
308.15 K, x1 = 0.6984 | 810.39 | 1.4418 | 1.127
308.15 K, x1 = 0.8001 | 826.41 | 1.4486 | 1.29
308.15 K, x1 = 0.8933 | 841.33 | 1.455 | 1.447
308.15 K, x1 = 1 | 858.61 | 1.4618 | 1.628
313.15 K, x1 = 0.1036 | 717.18 | – | 0.607
313.15 K, x1 = 0.2018 | 731.37 | – | 0.65
313.15 K, x1 = 0.3016 | 746.07 | – | 0.704
313.15 K, x1 = 0.4042 | 761.38 | – | 0.766
313.15 K, x1 = 0.4954 | 775.18 | – | 0.838
313.15 K, x1 = 0.6009 | 791.38 | – | 0.929
313.15 K, x1 = 0.6984 | 806.6 | – | 1.052
313.15 K, x1 = 0.8001 | 822.64 | – | 1.202
313.15 K, x1 = 0.8933 | 837.57 | – | 1.334
313.15 K, x1 = 1 | 854.88 | – | 1.505
318.15 K, x1 = 0.1036 | 713.25 | 1.3993 | 0.576
318.15 K, x1 = 0.2018 | 727.46 | 1.406 | 0.614
318.15 K, x1 = 0.3016 | 742.18 | 1.4122 | 0.663
318.15 K, x1 = 0.4042 | 757.52 | 1.4187 | 0.723
318.15 K, x1 = 0.4954 | 771.34 | 1.4249 | 0.786
318.15 K, x1 = 0.6009 | 787.56 | 1.4312 | 0.869
318.15 K, x1 = 0.6984 | 802.8 | 1.4379 | 0.984
318.15 K, x1 = 0.8001 | 818.86 | 1.4445 | 1.118
318.15 K, x1 = 0.8933 | 833.81 | 1.4509 | 1.241
318.15 K, x1 = 1 | 851.14 | 1.4581 | 1.394
323.15 K, x1 = 0.1036 | 709.3 | – | 0.547
323.15 K, x1 = 0.2018 | 723.54 | – | 0.583
323.15 K, x1 = 0.3016 | 738.28 | – | 0.627
323.15 K, x1 = 0.4042 | 753.64 | – | 0.682
323.15 K, x1 = 0.4954 | 767.48 | – | 0.742
323.15 K, x1 = 0.6009 | 783.73 | – | 0.821
323.15 K, x1 = 0.6984 | 798.99 | – | 0.922
323.15 K, x1 = 0.8001 | 815.08 | – | 1.041
323.15 K, x1 = 0.8933 | 830.05 | – | 1.156
323.15 K, x1 = 1 | 847.4 | – | 1.295
